Legend:
human recombinant HDAC1 = biological target: T1, human recombinant HDAC1 (Homo sapiens, UniProt Q13547); test: HDAC1 enzyme activity inhibition assay (in vitro, fluorimetric); assay type: biochemical; conditions: human recombinant HDAC1, fluorimetric kit, 30° C. 60 minutes
T1 construct: purchased Enzo Life Science BML-SE456
Procedure, shortened: (§1)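 Human recombinant enzyme (0.3 μg for HDAC1) reacted with 10 μM Fluor de Lys-SIRT1 substrate and 5-fold compound dilutions at 30 °C for 60 min, then developer for 30 min. Fluorescence read at Ex 360/Em 460; IC50 calculated. HDAC6 run by the same protocol.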

human recombinant HDAC6 = biological target: T2, human recombinant HDAC6 (Homo sapiens, UniProt Q9UBN7); test: HDAC6 enzyme activity inhibition assay (in vitro, fluorimetric); assay type: biochemical; conditions: for HDAC6 selectivity (fold): HDAC6 selectivity over HDAC1; for IC50: human recombinant HDAC6, fluorimetric kit, same protocol as HDAC1
T2 construct: purchased Calbiochem 382180
T2 sequence (Q9UBN7 1-1215): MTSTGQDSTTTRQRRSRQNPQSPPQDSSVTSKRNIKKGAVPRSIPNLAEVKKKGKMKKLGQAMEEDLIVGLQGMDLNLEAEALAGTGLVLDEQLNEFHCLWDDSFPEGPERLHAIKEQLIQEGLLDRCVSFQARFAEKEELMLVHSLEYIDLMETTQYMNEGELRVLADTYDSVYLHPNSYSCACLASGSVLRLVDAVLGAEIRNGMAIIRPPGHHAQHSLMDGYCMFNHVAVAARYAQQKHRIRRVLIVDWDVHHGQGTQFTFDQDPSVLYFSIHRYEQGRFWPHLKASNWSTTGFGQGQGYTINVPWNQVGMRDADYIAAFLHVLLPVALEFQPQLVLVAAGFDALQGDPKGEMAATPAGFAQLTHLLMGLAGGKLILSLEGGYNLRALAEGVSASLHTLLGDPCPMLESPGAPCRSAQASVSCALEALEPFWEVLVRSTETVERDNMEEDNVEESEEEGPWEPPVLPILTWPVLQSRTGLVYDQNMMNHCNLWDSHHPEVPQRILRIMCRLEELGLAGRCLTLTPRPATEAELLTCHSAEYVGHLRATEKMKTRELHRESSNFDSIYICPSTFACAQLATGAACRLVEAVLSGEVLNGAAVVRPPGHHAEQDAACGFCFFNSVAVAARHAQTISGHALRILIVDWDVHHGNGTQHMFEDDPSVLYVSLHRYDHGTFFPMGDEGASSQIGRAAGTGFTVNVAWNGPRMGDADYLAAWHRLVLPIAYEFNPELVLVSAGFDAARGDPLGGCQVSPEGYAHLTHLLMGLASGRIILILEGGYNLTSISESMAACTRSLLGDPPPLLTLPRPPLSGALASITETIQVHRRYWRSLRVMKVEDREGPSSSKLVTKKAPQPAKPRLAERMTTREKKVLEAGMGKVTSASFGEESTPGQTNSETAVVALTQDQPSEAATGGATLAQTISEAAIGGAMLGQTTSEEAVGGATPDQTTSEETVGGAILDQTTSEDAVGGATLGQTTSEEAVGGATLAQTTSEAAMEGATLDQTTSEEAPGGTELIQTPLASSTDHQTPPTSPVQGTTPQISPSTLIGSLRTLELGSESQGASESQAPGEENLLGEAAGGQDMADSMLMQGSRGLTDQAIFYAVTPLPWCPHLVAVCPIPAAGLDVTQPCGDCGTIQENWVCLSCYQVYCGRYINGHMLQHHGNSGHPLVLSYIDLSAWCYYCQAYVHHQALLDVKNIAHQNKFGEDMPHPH
Procedure, shortened: as §1

T1 sequence (Q13547 whole entry): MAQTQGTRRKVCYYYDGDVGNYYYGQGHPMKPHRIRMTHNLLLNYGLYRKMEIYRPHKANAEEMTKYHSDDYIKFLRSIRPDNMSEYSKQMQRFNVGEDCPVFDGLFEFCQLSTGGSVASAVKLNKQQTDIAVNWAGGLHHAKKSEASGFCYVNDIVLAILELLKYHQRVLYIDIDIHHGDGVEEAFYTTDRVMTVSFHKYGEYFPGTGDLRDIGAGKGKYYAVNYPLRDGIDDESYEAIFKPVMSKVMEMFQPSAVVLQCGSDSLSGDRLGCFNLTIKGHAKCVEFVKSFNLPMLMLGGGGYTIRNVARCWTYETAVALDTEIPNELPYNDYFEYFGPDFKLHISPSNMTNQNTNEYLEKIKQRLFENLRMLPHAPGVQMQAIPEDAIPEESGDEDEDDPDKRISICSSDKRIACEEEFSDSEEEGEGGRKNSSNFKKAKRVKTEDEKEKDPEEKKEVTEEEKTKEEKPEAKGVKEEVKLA

Row | Compound | IC50 (human recombinant HDAC1) [µM] | HDAC6 selectivity (fold) (human recombinant HDAC6) | IC50 (human recombinant HDAC6) [nM]
1 | CCN1CCN(Cc2cccc(C(=O)N3[C@H](C)CN(Cc4ccc(C(=O)NO)cc4)C[C@@H]3C)c2)CC1 [Compound 433, 4-(((3R,5S)-4-(3-((4-ethylpiperazin-1-yl)methyl)benzoyl)-3,5-dimethylpiperazin-1-yl)methyl)-N-hydroxybenzamide] | 3.5 | 71 | 49
2 | CC(=O)N1CCN(Cc2cccc(C(=O)N3[C@H](C)CN(Cc4ccc(C(=O)NO)cc4)C[C@@H]3C)c2)CC1 [Compound 435, 4-(((3R,5S)-4-(3-((4-acetylpiperazin-1-yl)methyl)benzoyl)-3,5-dimethylpiperazin-1-yl)methyl)-N-hydroxybenzamide] | 5.1 | 57 | 90
3 | CC(C)CCN1CCN(Cc2cccc(C(=O)N3[C@H](C)CN(Cc4ccc(C(=O)NO)cc4)C[C@@H]3C)c2)CC1 [Compound 442, N-hydroxy-4-(((3R,5S)-4-(3-((4-isopentylpiperazin-1-yl)methyl)benzoyl)-3,5-dimethylpiperazin-1-yl)methyl)benzamide] | 7.8 | 65 | 120
4 | C[C@@H]1CN(Cc2ccc(C(=O)NO)cc2)C[C@H](C)N1C(=O)c1cccc(CN2CCN(CC(F)(F)F)CC2)c1 [Compound 443, 4-(((3R,5S)-3,5-dimethyl-4-(3-((4-(2,2,2-trifluoroethyl)piperazin-1-yl)methyl)benzoyl)piperazin-1-yl)methyl)-N-hydroxybenzamide] | 9.6 | 68 | 141
5 | C[C@@H]1CN(Cc2ccc(C(=O)NO)cc2)C[C@H](C)N1Cc1cccc(C(=O)N2CCOCC2)c1 [Compound 446, 4-(((3R,5S)-3,5-dimethyl-4-(3-(morpholine-4-carbonyl)benzyl)piperazin-1-yl)methyl)-N-hydroxybenzamide] | 3.8 | 33 | 114
6 | C[C@@H]1CN(Cc2ccc(C(=O)NO)cc2)C[C@H](C)N1Cc1cccc(CN2CCN(S(C)(=O)=O)CC2)c1 [Compound 452, 4-(((3R,5S)-3,5-dimethyl-4-(3-((4-(methylsulfonyl)piperazin-1-yl)methyl)benzyl)piperazin-1-yl)methyl)-N-hydroxybenzamide] | 9.1 | 140 | 65
7 | C[C@@H]1CN(Cc2ccc(C(=O)NO)cc2)C[C@H](C)N1Cc1cccc(CN2CCN(CC(F)(F)F)CC2)c1 [Compound 453, 4-(((3R,5S)-3,5-dimethyl-4-(3-((4-(2,2,2-trifluoroethyl)piperazin-1-yl)methyl)benzyl)piperazin-1-yl)methyl)-N-hydroxybenzamide] | 11.9 | 154 | 77
8 | CCN(CC)C[C@@H](C)NCc1cccc(CN2[C@H](C)CN(Cc3ccc(C(=O)NO)cc3)C[C@@H]2C)c1 [Compound 455, 4-(((3R,5S)-4-(3-(((1-(diethylamino)propan-2-yl)amino)methyl)benzyl)-3,5-dimethylpiperazin-1-yl)methyl)-N-hydroxybenzamide] | 9.6 | 93 | 103
9 | C[C@@H]1CN(Cc2ccc(C(=O)NO)cc2)C[C@H](C)N1Cc1ccccc1CN1CCOCC1 [Compound 457, 4-(((3R,5S)-3,5-dimethyl-4-(2-(morpholinomethyl)benzyl)piperazin-1-yl)methyl)-N-hydroxybenzamide] | 0.3 | 2 | 146
10 | C[C@@H]1CN(Cc2ccc(C(=O)NO)cc2)C[C@H](C)N1C(=O)c1ccc(CN2CCOCC2)cc1 [Compound 458, 4-(((3R,5S)-3,5-dimethyl-4-(4-(morpholinomethyl)benzoyl)piperazin-1-yl)methyl)-N-hydroxybenzamide] | 6.1 | 21 | 286
11 | C[C@@H]1CN(Cc2ccc(C(=O)NO)cc2)C[C@H](C)N1C(=O)c1ccc(CN2CCCCC2)cc1 [Compound 459, 4-(((3R,5S)-3,5-dimethyl-4-(4-(piperidin-1-ylmethyl)benzoyl)piperazin-1-yl)methyl)-N-hydroxybenzamide] | 3.8 | 25 | 149

The next lines start with the values.

Row | IC50 (human recombinant HDAC1) [µM] | HDAC6 selectivity (fold) (human recombinant HDAC6) | IC50 (human recombinant HDAC6) [nM] | Compound
12 | 3.4 | 81 | 42 | C[C@@H]1CN(Cc2ccc(C(=O)NO)cc2)C[C@H](C)N1C(=O)c1cccc(CN2CCN(C)CC2)c1 [Compound 432, 4-(((3R,5S)-3,5-dimethyl-4-(3-((4-methylpiperazin-1-yl)methyl)benzoyl)piperazin-1-yl)methyl)-N-hydroxybenzamide]
13 | 3.7 | 61 | 60 | CC(C)N1CCN(Cc2cccc(C(=O)N3[C@H](C)CN(Cc4ccc(C(=O)NO)cc4)C[C@@H]3C)c2)CC1 [Compound 434, N-hydroxy-4-(((3R,5S)-4-(3-((4-isopropylpiperazin-1-yl)methyl)benzoyl)-3,5-dimethylpiperazin-1-yl)methyl)benzamide]
14 | 10.9 | 105 | 104 | C[C@@H]1CN(Cc2ccc(C(=O)NO)cc2)C[C@H](C)N1C(=O)c1cccc(CN2CCOCC2)c1 [Compound 439, 4-(((3R,5S)-3,5-dimethyl-4-(3-(morpholinomethyl)benzoyl)piperazin-1-yl)methyl)-N-hydroxybenzamide]
15 | 5.6 | 71 | 78 | CCN(CC)CC(C)NCc1cccc(C(=O)N2[C@H](C)CN(Cc3ccc(C(=O)NO)cc3)C[C@@H]2C)c1 (stereo partly drawn) [Compound 440, 4-(((3R,5S)-4-(3-(((1-(diethylamino)propan-2-yl)amino)methyl)benzoyl)-3,5-dimethylpiperazin-1-yl)methyl)-N-hydroxybenzamide]
16 | 5.4 | 154 | 35 | CC(CN(C)Cc1ccccc1)NCc1cccc(C(=O)N2[C@H](C)CN(Cc3ccc(C(=O)NO)cc3)C[C@@H]2C)c1 (stereo partly drawn) [Compound 441, 4-(((3R,5S)-4-(3-(((1-(benzyl(methyl)amino)propan-2-yl)amino)methyl)benzoyl)-3,5-dimethylpiperazin-1-yl)methyl)-N-hydroxybenzamide]
17 | 8.5 | 146 | 58 | C[C@@H]1CN(Cc2ccc(C(=O)NO)cc2)C[C@H](C)N1C(=O)c1cccc(CN2CCN(S(C)(=O)=O)CC2)c1 [Compound 444, 4-(((3R,5S)-3,5-dimethyl-4-(3-((4-(methylsulfonyl)piperazin-1-yl)methyl)benzoyl)piperazin-1-yl)methyl)-N-hydroxybenzamide]
18 | 11.1 | 77 | 144 | CC(CN(C)Cc1ccccc1)NCc1cccc(CN2[C@H](C)CN(Cc3ccc(C(=O)NO)cc3)C[C@@H]2C)c1 (stereo partly drawn) [Compound 456, 4-(((3R,5S)-4-(3-(((1-(benzyl(methyl)amino)propan-2-yl)amino)methyl)benzyl)-3,5-dimethylpiperazin-1-yl)methyl)-N-hydroxybenzamide]
19 | 4.4 | 20 | 219 | C[C@@H]1CN(Cc2ccc(C(=O)NO)cc2)C[C@H](C)N1C(=O)c1ccc(CN2CC[C@@H](F)C2)cc1 [Compound 460, 4-(((3R,5S)-4-(4-(((R)-3-fluoropyrrolidin-1-yl)methyl)benzoyl)-3,5-dimethylpiperazin-1-yl)methyl)-N-hydroxybenzamide]

Source: US10287255B2, “Compounds as histone deacetylase 6 inhibitors and pharmaceutical compositions comprising the same” (CHONG KUN DANG PHARMACEUTICAL CORP., priority 2014, dated 2019)
